Laboratory results from patent US10294202B2, “Pyrrolidinones as herbicides” (FMC Corporation, priority 2013, dated 2019).

Experiments:
[1] = system: barnyardgrass; experiment: Test A pre-/postemergence herbicide test; type: in vivo, Echinochloa crus-galli
In short: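 Visual injury ratings, 0 = no effect, 100 = complete control, taken ~10 days after treatment against untreated greenhouse controls. Preemergence: directed soil spray onto seeded loam/sand pots. Postemergence: spray onto plants at one- to two-leaf stage, 2–10 cm tall.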

[2] = system: blackgrass; experiment: Test C pre-/postemergence herbicide test; type: in vivo, Alopecurus myosuroides; details: Preemergence; for Plant response rating (scale of 0 to 100), Blackgrass: 250 g ai/ha
In short: (§1)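 Pre- and postemergence greenhouse screen. Preemergence treatment went onto freshly planted seeds in loam–sand soil; postemergence treatment went onto plants 2 to 18 cm tall at the 1- to 4-leaf stage in sphagnum peat/vermiculite medium. Scoring at 13 to 15 days used a 0–100 control scale.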

[3] = system: wheat (winter wheat); experiment: Test C pre-/postemergence herbicide test; type: in vivo, Triticum aestivum; details: Preemergence; for Plant response rating, Wheat: 125 g ai/ha
In short: as §1

[4] = system: galium; experiment: Test C pre-/postemergence herbicide test; type: in vivo, Galium aparine; details: Preemergence; for Plant response rating, Galium: 125 g ai/ha; for Plant response rating (scale of 0 to 100), Galium: 250 g ai/ha
In short: as §1

[5] = system: crabgrass, large; experiment: Test C pre-/postemergence herbicide test; type: in vivo, Digitaria sanguinalis; details: Preemergence; for Plant response rating, Crabgrass, Large: 125 g ai/ha; for Plant response rating (scale of 0 to 100), Crabgrass, Large: 250 g ai/ha
In short: as §1

[6] = system: foxtail, giant; experiment: Test C pre-/postemergence herbicide test; type: in vivo, Setaria faberii; details: Preemergence; for Plant response rating, Foxtail, Giant: 125 g ai/ha; for Plant response rating (scale of 0 to 100), Foxtail, Giant: 250 g ai/ha
In short: as §1

[7] = system: pigweed; experiment: Test C pre-/postemergence herbicide test; type: in vivo, Amaranthus retroflexus; details: Preemergence; for Plant response rating, Pigweed: 125 g ai/ha
In short: as §1

[8] = system: soybean; experiment: Test C pre-/postemergence herbicide test; type: in vivo, Glycine max; details: Preemergence; for Plant response rating, Soybean: 125 g ai/ha
In short: as §1

[9] = system: barnyardgrass; experiment: Test C pre-/postemergence herbicide test; type: in vivo, Echinochloa crus-galli; details: Preemergence; for Plant response rating (scale of 0 to 100; 0 is no effect, 100 is complete control), Barnyardgrass: 250 g ai/ha
In short: as §1

[10] = system: oilseed rape; experiment: Test C pre-/postemergence herbicide test; type: in vivo, Brassica napus; details: Preemergence; for Plant response rating, Oilseed Rape: 125 g ai/ha; for Plant response rating (scale of 0 to 100), Oilseed Rape: 250 g ai/ha
In short: as §1

[11] = system: velvetleaf; experiment: Test C pre-/postemergence herbicide test; type: in vivo, Abutilon theophrasti; details: Preemergence; for Plant response rating, Velvetleaf: 125 g ai/ha
In short: as §1

[12] = 31 g ai/ha, scale 0 to 100, 0 is no effect and 100 is complete control
[13] = 125 g ai/ha, scale 0 to 100 (0 no effect, 100 complete control)
[14] = 62 g ai/ha, scale 0 to 100 (0 no effect, 100 complete control)
[15] = scale 0 to 100 (0 no effect, 100 complete control)
[16] = Postemergence, 125 g ai/ha, visual rating on 0 to 100 scale (0 no effect, 100 complete control), approx. 10 days
[17] = Postemergence, 500 g ai/ha, 0 to 100 scale (0 no effect, 100 complete control)
[18] = Preemergence, 125 g ai/ha, 0 to 100 scale where 0 is no effect and 100 is complete control
[19] = Preemergence, 500 g ai/ha, visual rating on 0 to 100 scale (0 no effect, 100 complete control)

O=C1NCC(c2ccc(C(F)(F)F)cc2)C1C(=O)Nc1ccccc1F (stereo not shown) [Compound 231]
Plant response rating, Barnyardgrass ([1]; 125 g ai/ha, visual rating, 0 to 100 scale, 0 no effect, 100 complete control, approximately 10 days, preemergence): 90 | Plant response rating, Barnyardgrass ([1]; Postemergence, 125 g ai/ha, 0 to 100 scale, 0 is no effect, 100 is complete control): 80 | Barnyardgrass plant response rating (0 to 100 scale, 0 is no effect, 100 is complete control) ([1]; Postemergence, 500 g ai/ha): 90 | Plant response rating, Barnyardgrass ([1]; preemergence, 500 g ai/ha, 0 to 100 scale, 0 is no effect and 100 is complete control): 90 | Blackgrass plant response rating [2, 12]: 50 | Plant response rating, Blackgrass ([2]; 62 g ai/ha, scale 0 to 100): 85 | Plant response rating, Blackgrass [2, 13]: 85 | Plant response rating (scale of 0 to 100), Blackgrass [2]: 90 | Wheat plant response rating [3, 12]: 0 | Wheat plant response rating [3, 14]: 15 | Plant response rating, Wheat [3, 15]: 20 | Plant response rating (scale of 0 to 100), Wheat ([3]; 250 g ai/ha): 80 | Galium plant response rating [4, 12]: 0 | Galium plant response rating [4, 14]: 85 | Plant response rating, Galium [4, 15]: 90 | Plant response rating (scale of 0 to 100), Galium [4]: 90 | Crabgrass, Large plant response rating [5, 12]: 90 | Crabgrass, Large plant response rating [5, 14]: 95 | Plant response rating, Crabgrass, Large [5, 15]: 100 | Plant response rating (scale of 0 to 100), Crabgrass, Large [5]: 100 | Foxtail, Giant plant response rating [6, 12]: 90 | Foxtail, Giant plant response rating [6, 14]: 90 | Plant response rating, Foxtail, Giant [6, 15]: 98 | Plant response rating (scale of 0 to 100), Foxtail, Giant [6]: 95 | Pigweed plant response rating [7, 12]: 35 | Pigweed plant response rating [7, 14]: 70 | Plant response rating, Pigweed [7, 15]: 85 | Plant response rating (scale of 0 to 100), Pigweed ([7]; 250 g ai/ha): 90 | Soybean plant response rating [8, 12]: 0 | Soybean plant response rating [8, 14]: 0 | Plant response rating, Soybean [8, 15]: 0 | Plant response rating (scale of 0 to 100), Soybean ([8]; 250 g ai/ha): 5 | Barnyardgrass plant response rating [9, 12]: 85 | Plant response rating, Barnyardgrass ([9]; 62 g ai/ha, scale 0 to 100): 90 | Plant response rating, Barnyardgrass [9, 13]: 95 | Plant response rating (scale of 0 to 100; 0 is no effect, 100 is complete control), Barnyardgrass [9]: 95 | Oilseed Rape plant response rating [10, 12]: 0 | Oilseed Rape plant response rating [10, 14]: 55 | Plant response rating, Oilseed Rape [10, 15]: 85 | Plant response rating (scale of 0 to 100), Oilseed Rape [10]: 90 | Velvetleaf plant response rating [11, 12]: 10 | Velvetleaf plant response rating [11, 14]: 25 | Plant response rating, Velvetleaf [11, 15]: 35 | Plant response rating (scale of 0 to 100), Velvetleaf ([11]; 250 g ai/ha): 60

CC(C)c1cccc(C2CNC(=O)C2C(=O)Nc2ccccc2F)c1 (stereo not shown) [Compound 318]
Plant response rating, Barnyardgrass [1, 16]: 90 | Plant response rating, Barnyardgrass [1, 17]: 90 | Plant response rating, Barnyardgrass [1, 18]: 90 | Barnyardgrass plant response rating [1, 19]: 90 | Blackgrass plant response rating [2, 12]: 0 | Blackgrass plant response rating [2, 14]: 0 | Plant response rating, Blackgrass ([2]; 125 g ai/ha, scale 0 to 100): 30 | Plant response rating (scale of 0 to 100), Blackgrass [2]: 45 | Wheat plant response rating [3, 14]: 0 | Plant response rating, Wheat ([3]; scale 0 to 100): 5 | Galium plant response rating [4, 12]: 0 | Galium plant response rating [4, 14]: 0 | Plant response rating, Galium ([4]; scale 0 to 100): 40 | Plant response rating (scale of 0 to 100), Galium [4]: 100 | Crabgrass, Large plant response rating [5, 12]: 95 | Crabgrass, Large plant response rating [5, 14]: 98 | Plant response rating, Crabgrass, Large ([5]; scale 0 to 100): 98 | Plant response rating (scale of 0 to 100), Crabgrass, Large [5]: 100 | Foxtail, Giant plant response rating [6, 12]: 10 | Foxtail, Giant plant response rating [6, 14]: 70 | Plant response rating, Foxtail, Giant ([6]; scale 0 to 100): 75 | Plant response rating (scale of 0 to 100), Foxtail, Giant [6]: 90 | Pigweed plant response rating [7, 12]: 0 | Pigweed plant response rating [7, 14]: 20 | Plant response rating, Pigweed ([7]; scale 0 to 100): 20 | Soybean plant response rating [8, 14]: 0 | Plant response rating, Soybean ([8]; scale 0 to 100): 0 | Barnyardgrass plant response rating [9, 12]: 80 | Barnyardgrass plant response rating [9, 14]: 95 | Plant response rating, Barnyardgrass [9, 13]: 95 | Plant response rating (scale of 0 to 100; 0 is no effect, 100 is complete control), Barnyardgrass [9]: 95 | Oilseed Rape plant response rating [10, 12]: 0 | Oilseed Rape plant response rating [10, 14]: 0 | Plant response rating, Oilseed Rape ([10]; scale 0 to 100): 5 | Plant response rating (scale of 0 to 100), Oilseed Rape [10]: 5 | Velvetleaf plant response rating [11, 14]: 10 | Plant response rating, Velvetleaf ([11]; scale 0 to 100): 25

CC(C)c1cccc(C2CNC(=O)C2C(=O)Nc2cccc(F)c2F)c1 (stereo not shown) [Compound 319]
Plant response rating, Barnyardgrass [1, 16]: 90 | Plant response rating, Barnyardgrass [1, 17]: 90 | Plant response rating, Barnyardgrass [1, 18]: 90 | Barnyardgrass plant response rating [1, 19]: 90 | Blackgrass plant response rating [2, 12]: 40 | Blackgrass plant response rating [2, 14]: 0 | Plant response rating, Blackgrass ([2]; 125 g ai/ha, scale 0 to 100): 30 | Plant response rating (scale of 0 to 100), Blackgrass [2]: 80 | Wheat plant response rating [3, 14]: 0 | Plant response rating, Wheat ([3]; scale 0 to 100): 10 | Galium plant response rating [4, 12]: 95 | Galium plant response rating [4, 14]: 70 | Plant response rating, Galium ([4]; scale 0 to 100): 80 | Plant response rating (scale of 0 to 100), Galium [4]: 85 | Crabgrass, Large plant response rating [5, 12]: 95 | Crabgrass, Large plant response rating [5, 14]: 98 | Plant response rating, Crabgrass, Large ([5]; scale 0 to 100): 95 | Plant response rating (scale of 0 to 100), Crabgrass, Large [5]: 98 | Foxtail, Giant plant response rating [6, 12]: 70 | Foxtail, Giant plant response rating [6, 14]: 85 | Plant response rating, Foxtail, Giant ([6]; scale 0 to 100): 95 | Plant response rating (scale of 0 to 100), Foxtail, Giant [6]: 95 | Pigweed plant response rating [7, 12]: 30 | Pigweed plant response rating [7, 14]: 25 | Plant response rating, Pigweed ([7]; scale 0 to 100): 40 | Soybean plant response rating [8, 14]: 0 | Plant response rating, Soybean ([8]; scale 0 to 100): 0 | Barnyardgrass plant response rating [9, 12]: 90 | Barnyardgrass plant response rating [9, 14]: 95 | Plant response rating, Barnyardgrass [9, 13]: 95 | Plant response rating (scale of 0 to 100; 0 is no effect, 100 is complete control), Barnyardgrass [9]: 98 | Oilseed Rape plant response rating [10, 12]: 0 | Oilseed Rape plant response rating [10, 14]: 5 | Plant response rating, Oilseed Rape ([10]; scale 0 to 100): 60 | Plant response rating (scale of 0 to 100), Oilseed Rape [10]: 65 | Velvetleaf plant response rating [11, 14]: 20 | Plant response rating, Velvetleaf ([11]; scale 0 to 100): 45
